Measurements reported in patent publication US20240331158A1, “CELL PAINTING AND ANALYSIS IN 3D CELLULAR MODELS” (priority 2023, published 2024).
Structures can show the parent of a compound that is named as a salt. Where two headings read alike, the source gives them in different places. *1 amine or outer side, *2 acyl side, *3 side chain or, on linkers, in order; H or OH if unused. Where a SMILES comes first, the peptide text is derived from it. Bridges are numbered along the chain shown (N, C = ends). Roman numbers before positions name the chains, in order. [ ]: non-standard residue; d: D form. Actinocin(9to1) = Cc1c2oc3c(C)ccc(C(=O)[*:1])c3nc-2c(C(=O)[*:2])c(N)c1=O; NMeV = CN[C@H](C(=O)O)C(C)C; Sar = CNCC(=O)O

How the values were obtained:
[1] = system: TU-BcX-4IC tumoroids; experiment: Secondary follow-up 3D assay, 7-point concentration curves, tumoroid disintegration measurement; assay type: cell-based, human; conditions: 3D assay, 7-point concentration curves, 5 days, nuclear count in projection images
Experimental: 10 compounds, including panobinostat, carfilzomib, and bortezomib were tested across 7 concentrations in the 1-10000 nM range. Spheroids were treated for 5 days with these compounds, then stained as described above (FIG. 4). […] EC50 values (Table 2) were determined using tumoroid disintegration measurement (nuclear count in projection images).
Automated staining of spheroids was performed for one hour. After staining, dye solution was replaced with 1×PBS.

[2] = system: TU-BcX-4IC tumoroids; experiment: Library screening of NCI approved anti-cancer drugs: tumoroid integrity/disintegration by nuclear count in projection images (viability/spheroid disintegration assay); conditions: for Viability HIT?: also hit in viability/spheroid disintegration assay, 10 μM; for minimal effective concentration: Homo sapiens, TU-BcX-4IC, 120 h
Experimental: In addition, positive and negative controls were included in the test plates.
During incubation with compounds, tumoroids were monitored daily using TL imaging. Image analysis allowed characterization of tumoroid size, diameter, compactness, and integrity, as well as optical density (FIG. 2B, FIG. 7). Images of tumoroids were taken prior to compound treatment, and during day 3 and day 5 of compound treatment. For the end point assay, tumoroids were stained with viability and nuclear dyes on day 5 of compound treatment. Cells were stained with a combination of Hoechst, calcein AM, and Ethidium Homodimer III (EthD-III) and analyzed using high content imaging for complex phenotypic analysis; a subset of plates was set aside for additional assays including Cell Painting.
Images of organoids were taken with a 10× objective using Z-stack with a step size of 8 mm. Nuclei, live cells, and dead cells of stained cells were detected using DAPI, FITC, and TexasRed channels respectively. Maximum projection images were created from Z-stacks and analyzed as described in Methods. Multiple read-outs were generated characterizing spheroid area, diameter, intensities, and cell viability. In addition, cells inside each spheroid were counted using a nuclear stain. […] Suspended cells were plated into U-shape 384 well plates using a Biomek i7 automated liquid handler, incubated for 48 hours, and then treated with compounds, stained, and imaged. The protocols for compound additions, media, and staining included gentle media dispensing processes. Consecutively, tumoroids were cultured and monitored by automated imaging. Additionally, use of a collaborative robot enabled moving plates from the incubator to the imaging system, where transmitted light imaging or fluorescent imaging protocols were initiated.
For screening the compound library, maximum projection images may be employed. Spheroid disintegration is visible as an increase of spheroid size, in contrast to nicely shaped, round images of intact spheroids. Tumoroid disintegration can be described by several measurements: for example, increase in organoid area/diameter. Most accurate measurements may be done by counting cells or nuclei inside organoids using maximum projection images. […] Disintegrated tumoroids are made up of cells which are not held together in a tight aggregate but instead are loosely piled up in the well bottom resulting in 1) an increased projected area and 2) an increase in nuclear count in the projection images.
Simple nuclei count analysis in projection images was used as a reliable surrogate marker for organoid integrity/dis-integration.

[3] = system: TU-BcX-4IC tumoroids; experiment: Cell Painting assay adapted for 3D tumoroids, phenotypic distance score and cluster analysis; conditions: 10 μM, phenotypic distance relative to DMSO controls
Experimental: For phenotypic profiling, the tumoroids were treated with a single 10 μM concentration of compound, using the methods described above. Notable changes in the staining protocol included increased times for dye incubation, fixation, and permeabilization. […] Images were acquired with Z-stacks using 20× magnification, and the analysis was carried out on projection (maximum) images.
Unlike the previous analysis that included cell count or live-dead evaluation, multiple read-outs may be collected from the whole spheroid to form their phenotypic profile. […] Instead, the spheroid images may also acquired in transmitted light (bright field), and these images may be used to identify the spheroid structures using a deep learning-based image segmentation approach which may improve the analysis. Features extracted from each spheroid may include object morphologies, intensities, and texture measurements for, e.g., the six cell stains and bright field images.
To determine hits from the assay, a phenotypic distance score may be calculated based on the PCA (principal component analysis) components.
This score is a measure of the phenotypic effect of the compounds on the tumoroids relative to the controls. All hits may then be clustered based on their phenotypic profiles using the normalized principal component scores.
To image the organoids labeled with the cell painting dyes, the ImageXpress Confocal HT.ai system, equipped with a laser light source, was used for image acquisition. The confocal mode (pinhole size 60 μm) was used to image organoids with a 20× Plan Apo Lambda, NA 0.75 objective, with z-stacking enabled (5p m step size). The maximum projection image was selected in the acquisition setup.
Images were analyzed using MetaXpress Software (Molecular Devices). […] For the Cell Painting analysis, image analysis was done in the IN Carta image analysis software. To segment the organoids, a deep learning-based model was created based on the TL channel to segment individual organoids. Following segmentation, measurements that include intensity, shape, area, and texture were extracted from all 6 fluorescent channels. In total, 210 analytical features were obtained from each organoid.
The plate was first incubated with MitoTracker DeepRed (500 nM) for 2 hours. The samples were fixed with 4% paraformaldehyde (PFA) in HBSS for 60 minutes. All wash steps were carried out by exchanging half the volume in each well with HBSS to minimize displacement of the organoids from the center of the well.
Measurements from IN Carta were exported as a CSV file and uploaded into StratoMineR (Core Life Analytica), a web-based data analytics platform for hit picking and phenotypic clustering.

[4] = system: TU-BcX-4IC 3D cultures; experiment: Imaging read-out, 3D culture; conditions: Homo sapiens, 120 h, read-out: EC50, Imaging 3D
Experimental: (§1) Cell metabolism may be measured by ATP level as another readout for effects of anti-cancer drugs that is related to cytotoxicity. In the present examples, a subset of 12 compounds were used for evaluation of compound effects, using the CellTiter-Glo 3D assay (Promega), which detects ATP levels. Compounds may be tested using 7 point 5× dilutions starting from 100 uM. In the present examples, compound effects on 2D culture and 3D cultures were compared, using imaging and CellTiter-Glo 3D methods. Cultures were set up in parallel, using same cell number (2000). Cultures were allowed to grow for 48 hours, then treated with compounds for 5 days.
(§2) Images were analyzed using MetaXpress Software (Molecular Devices). Count Nuclei or Cell Scoring application modules were used for nuclear count live/dead assessment, or evaluation of cell number positive for specific markers. Output measurements included spheroid width, spheroid area, average intensity for calcein AM or EthD-III, counts of all nuclei, and evaluation of average nuclear size and average intensities. In addition, calcein AM-positive cells were counted, and their area and intensity values were recorded. In addition to cell count, areas and intensities could be determined for live (EthD-III negative) and dead (EthD-III positive) cells.

[5] = system: TU-BcX-4IC 2D culture; experiment: CellTiter-Glo 3D ATP assay, 2D culture; conditions: for EC50: Homo sapiens, TU-BcX-4IC, 120 h, read-out: EC50, ATP 2D
Experimental: (§3) Cell metabolism may be measured by ATP level as another readout for effects of anti-cancer drugs that is related to cytotoxicity. […] Compounds may be tested using 7 point 5× dilutions starting from 100 uM. In the present examples, compound effects on 2D culture and 3D cultures were compared, using imaging and CellTiter-Glo 3D methods. Cultures were set up in parallel, using same cell number (2000). Cultures were allowed to grow for 48 hours, then treated with compounds for 5 days.

[6] = system: TU-BcX-4IC 2D culture; experiment: Imaging read-out, 2D culture; conditions: Homo sapiens, 120 h, read-out: EC50, Imaging 2D
Experimental: as §1, §2

[7] = system: TU-BcX-4IC 3D cultures; experiment: CellTiter-Glo 3D ATP assay, 3D culture; conditions: for EC50: Homo sapiens, TU-BcX-4IC, 120 h, read-out: EC50, ATP 3D
Experimental: as §3

[8] = Homo sapiens, TU-BcX-4IC, 120 h, read-out: EC50
[9] = read-out: Effective concentration, 3D tumoroids, 5 days treatment, tumoroid integrity by nuclear count, tested at 10 nM to 100 uM
[10] = read-out: Effective concentration

Row | Compound | Viability HIT? [2] | Distance Score [3] | minimal effective concentration [2, 9] [µM] | further results
1 | Cc1ccc(-c2cc(C(F)(F)F)nn2-c2ccc(S(N)(=O)=O)cc2)cc1 [Celecoxib] | – | – | – | EC50 [1]: no effect
2 | C[C@@H](Oc1cc(-c2cnn(C3CCNCC3)c2)cnc1N)c1c(Cl)ccc(F)c1Cl [Crizotinib] | – | – | – | EC50 [1, 8]: > 1000 nM
3 | COC(=O)N[C@@H](C)CNc1nccc(-c2cn(C(C)C)nc2-c2cc(Cl)cc(NS(C)(=O)=O)c2F)n1 [Encorafenib] | no | 5.516 | – | –
4 | CC1(C)CCC(CN2CCN(c3ccc(C(=O)NS(=O)(=O)c4ccc(NCC5CCOCC5)c([N+](=O)[O-])c4)c(Oc4cnc5[nH]ccc5c4)c3)CC2)=C(c2ccc(Cl)cc2)C1 [Venetoclax] | – | 4.922 | 1 | –
5 | Cc1nc(NC(=O)N2CCC[C@H]2C(N)=O)sc1-c1ccnc(C(C)(C)C(F)(F)F)c1 [Alpelisib] | yes | 5.834 | – | –
6 | Cc1nc(Nc2ncc(C(=O)Nc3c(C)cccc3Cl)s2)cc(N2CCN(CCO)CC2)n1 [Dasatinib] | – | – | 0.1 | –
7 | Clc1ccc(C(c2ccccc2Cl)C(Cl)Cl)cc1 (stereo not shown) [Mitotane] | – | – | 0.1 | –
8 | COc1cc2c(Nc3ccc(Br)cc3F)ncnc2cc1OCC1CCN(C)CC1 [Vandetanib] | – | 5.185 | 1 | –
9 | Cc1cnc(Nc2ccc(OCCN3CCCC3)cc2)nc1Nc1cccc(S(=O)(=O)NC(C)(C)C)c1 [Fedratinib] | – | – | 1 | –
10 | CN(C)C/C=C/C(=O)Nc1cc2c(Nc3ccc(F)c(Cl)c3)ncnc2cc1O[C@H]1CCOC1 [Afatinib] | – | 5.047 | – | –
11 | Oc1ncc(N(CCCl)CCCl)c(O)n1 [Uracil mustard] | – | – | – | minimal effective concentration [2, 10]: 1 µM
12 | CCCCC(=O)OCC(=O)[C@]1(O)Cc2c(O)c3c(c(O)c2[C@@H](O[C@H]2C[C@H](NC(=O)C(F)(F)F)[C@H](O)[C@H](C)O2)C1)C(=O)c1c(OC)cccc1C3=O [Valrubicin] | yes | 8.136 | – | –
13 | CNC(=O)c1cc(Oc2ccc(NC(=O)Nc3ccc(Cl)c(C(F)(F)F)c3)c(F)c2)ccn1 [Regorafenib] | – | – | 0.1 | –
14 | COc1cccc2c1C(=O)c1c(O)c3c(c(O)c1C2=O)C[C@@](O)(C(=O)CO)C[C@@H]3O[C@H]1C[C@H](N)[C@@H](O)[C@H](C)O1 [Epirubicin hydrochloride] | – | 5.883 | 1 | –
15 | O=C(/C=C/c1cccc(S(=O)(=O)Nc2ccccc2)c1)NO [Belinostat] | yes | 5.348 | 0.1 | –
16 | CO[C@@]12[C@H](COC(N)=O)C3=C(C(=O)C(C)=C(N)C3=O)N1C[C@@H]1N[C@@H]12 [Mitomycin] | – | – | 1 | –
17 | C=CC(=O)N1CCC[C@@H](n2nc(-c3ccc(Oc4ccccc4)cc3)c3c(N)ncnc32)C1 [Ibrutinib] | – | – | – | EC50 [4]: ~20000 nM; EC50 [5]: 25000 nM; EC50 [6]: 20200 nM; EC50 [7]: 15800 nM
18 | CN1CCN(c2ccc(C(=O)Nc3n[nH]c4ccc(Cc5cc(F)cc(F)c5)cc34)c(NC3CCOCC3)c2)CC1 [Entrectinib] | yes | 4.843 | – | –
19 | CCN1CCN(Cc2ccc(Nc3ncc(F)c(-c4cc(F)c5nc(C)n(C(C)C)c5c4)n3)nc2)CC1 [Abemaciclib] | – | 5.819 | – | –
20 | O=C(Nc1cnn2ccc(N3CCC[C@@H]3c3cc(F)ccc3F)nc12)N1CC[C@H](O)C1 [Larotrectinib] | no | 5.667 | – | –

Row | Compound | Viability HIT? [2] | Distance Score [3] | minimal effective concentration [2, 9] [µM] | further results
21 | Cn1cc(-c2cc3c(N4CCN(c5ncc([C@@](C)(N)c6ccc(F)cc6)cn5)CC4)ncnn3c2)cn1 [Avapritinib] | no | 5.386 | – | –
22 | CC(C)C[C@H](NC(=O)[C@H](CCc1ccccc1)NC(=O)CN1CCOCC1)C(=O)N[C@@H](Cc1ccccc1)C(=O)N[C@@H](CC(C)C)C(=O)[C@@]1(C)CO1 [Carfilzomib] | no | 5.007 | – | EC50 [4]: 73 nM; EC50 [5]: 1040 nM; EC50 [6]: 1050 nM; EC50 [7]: 5820 nM
23 | CC[C@]1(O)C[C@H]2CN(CCc3c([nH]c4ccccc34)[C@@](C(=O)OC)(c3cc4c(cc3OC)N(C=O)[C@H]3[C@@](O)(C(=O)OC)[C@H](OC(C)=O)[C@]5(CC)C=CCN6CC[C@]43[C@@H]65)C2)C1 [Vincristine sulfate] | – | – | 0.1 | –
24 | C=CC(=O)Nc1cc(Nc2nccc(-c3cn(C)c4ccccc34)n2)c(OC)cc1N(C)CCN(C)C [Osimertinib] | yes | 5.241 | – | –
25 | CCc1nc(C(N)=O)c(Nc2ccc(N3CCC(N4CCN(C)CC4)CC3)c(OC)c2)nc1NC1CCOCC1 [Gilteritinib] | – | 5.239 | 1 | –
26 | Dabrafenib mesylate | yes | 6.249 | – | –
27 | Cc1c2oc3c(C)ccc(C(=O)N[C@@H]4C(=O)N[C@H](C(C)C)C(=O)N5CCC[C@H]5C(=O)N(C)CC(=O)N(C)[C@@H](C(C)C)C(=O)O[C@@H]4C)c3nc-2c(C(=O)N[C@@H]2C(=O)N[C@H](C(C)C)C(=O)N3CCC[C@H]3C(=O)N(C)CC(=O)N(C)[C@@H](C(C)C)C(=O)O[C@@H]2C)c(N)c1=O [Dactinomycin] (I: T[dV]P[Sar][NMeV] / II: T[dV]P[Sar][NMeV]; ester I:1-I:C, II:1-II:C; linker I:N-II:N via Actinocin(9to1)) | – | – | – | EC50 [4]: 33 nM; Efficacy at low concentrations ([2]; library screen, tumoroid integrity by nuclear count): efficacy at low concentrations; EC50 [5]: < 10 nM; EC50 [6]: < 10 nM; EC50 [7]: 5 nM
28 | COc1cc(Nc2c(C#N)cnc3cc(OCCCN4CCN(C)CC4)c(OC)cc23)c(Cl)cc1Cl [Bosutinib] | – | – | 0.1 | –
29 | O=C(/C=C\n1cnc(-c2cc(C(F)(F)F)cc(C(F)(F)F)c2)n1)NNc1cnccn1 [Selinexor] | no | 5.004 | – | –
30 | O=C(CCCCCCC(=O)Nc1ccccc1)NO [Vorinostat] | no | 5.079 | 1 | –
31 | CO[C@H]1C[C@@H]2CC[C@@H](C)[C@@](O)(O2)C(=O)C(=O)N2CCCC[C@H]2C(=O)O[C@H]([C@H](C)C[C@@H]2CC[C@@H](OC(=O)C(C)(CO)CO)[C@H](OC)C2)CC(=O)[C@H](C)/C=C(\C)[C@@H](O)[C@@H](OC)C(=O)[C@H](C)C[C@H](C)/C=C/C=C/C=C/1C [Temsirolimus] | no | 5.699 | 1 | EC50 [4]: 8520 nM; EC50, ATP 2D ([5]; 2D culture, 2000 cells, 5 days treatment, CellTiter-Glo 3D): no fit; EC50 [6]: 10000 nM; EC50, ATP 3D ([7]; 3D culture, 2000 cells, 5 days treatment, CellTiter-Glo 3D): no fit
32 | CC(=O)O[C@H]1C(=O)[C@@]2(C)[C@H]([C@H](OC(=O)c3ccccc3)[C@]3(O)C[C@H](OC(=O)[C@H](O)[C@@H](NC(=O)c4ccccc4)c4ccccc4)C(C)=C1C3(C)C)[C@]1(OC(C)=O)CO[C@@H]1C[C@@H]2O [Paclitaxel] | – | – | 1 | EC50 [1, 8]: 2900 nM
33 | CC(=O)[C@]1(O)Cc2c(O)c3c(c(O)c2[C@@H](O[C@H]2C[C@H](N)[C@H](O)[C@H](C)O2)C1)C(=O)c1ccccc1C3=O [Idarubicin hydrochloride] | – | – | 1 | EC50 [4]: 3930 nM; EC50 [5]: 67 nM; EC50 [6]: ~1000 nM; EC50 [7]: 145 nM
34 | Cc1ccc(C(=O)Nc2ccc(CN3CCN(C)CC3)c(C(F)(F)F)c2)cc1C#Cc1cnc2cccnn12 [Ponatinib] | – | – | – | minimal effective concentration [2, 10]: 0.1 µM
35 | C[C@]12CC[C@@H]3c4ccc(O)cc4C[C@@H](CCCCCCCCC[S+]([O-])CCCC(F)(F)C(F)(F)F)[C@H]3[C@@H]1CC[C@@H]2O (stereo partly shown) [Fulvestrant] | – | – | 0.01 | –
36 | CC[C@]1(O)C[C@@H]2CN(CCc3c([nH]c4ccccc34)[C@@](C(=O)OC)(c3cc4c(cc3OC)N(C)[C@H]3[C@@](O)(C(=O)OC)[C@H](OC(C)=O)[C@]5(CC)C=CCN6CC[C@]43[C@@H]65)C2)C1 [Vinblastine sulfate] | – | – | 0.1 | –
37 | COC(=O)C[C@](O)(CCCC(C)(C)O)C(=O)O[C@@H]1C(OC)=C[C@]23CCCN2CCc2cc4c(cc2[C@H]13)OCO4 [Omacetaxine] | – | – | – | Effective concentration ([2]; 3D tumoroids, 5 days treatment, tumoroid integrity by nuclear count, tested at 10 nM to 100 uM): 1 µM; EC50 ([1]; read-out: EC50): < 100 nM
38 | CC(C)C[C@H](NC(=O)CNC(=O)c1cc(Cl)ccc1Cl)B1OC(=O)C(CC(=O)O)(CC(=O)O)O1 [Ixazomib citrate] | – | – | 0.1 | –
39 | COc1cc(N2CCC(N3CCN(C)CC3)CC2)ccc1Nc1ncc(Cl)c(Nc2ccccc2P(C)(C)=O)n1 [Brigatinib] | – | 5.771 | 1 | –
40 | CCN(CC)CCNC(=O)c1c(C)[nH]c(/C=C2\C(=O)Nc3ccc(F)cc32)c1C [Sunitinib] | – | – | – | EC50 [1, 8]: 1700 nM
